Reference: US10081737B2, “Method for producing curing agent of coating and its application on coating” (SHANGHAI YAO HE BIOCHEMICAL TECHNOLOGY CO., LTD., priority 2016, dated 2018)

Assays:
Format in all cases: physicochemical
[1] = Gloss of the polyester powder coating films; conditions: polyester powder coating film containing the named curing agent (compositions of Table 1)
Experimental: (§1) To verify properties of the product of the invention, APLUS101, APLUS102, HAA and TGIC are individually mixed with the polyester powder and additives. These curing agents are added in amounts of 2-8 wt % of the polyester powder coatings.
(§2) The coatings are tested in the form of films and the tests are carried out in the same conditions.

[2] = Neutral salt-spray tests, 300 h, on coating films; conditions: corrosion of the coating film; cell text wraps over r6-r8 (Slight corrosion / No corrosion)
Experimental: as §1, §2

[3] = QUV-A tests, 500 h, gloss retention of coating films; conditions: coating film containing the named curing agent
Experimental: as §1, §2

[4] = Flow and leveling of the powder coatings; conditions: polyester powder coating containing the named curing agent
Experimental: as §1, §2

[5] = MEK resistance tests, 24 h, gloss loss of coating films; conditions: coating film containing the named curing agent
Experimental: as §1, §2

[6] = Heat resistance of coating films, 220° C., 15 min; conditions: color difference compared with the color at 200° C., 10 min; less color differences indicate better properties
Experimental: as §1, §2

Structure (SMILES) | Gloss of the films [1] | Neutral salt-spray tests, 300 h [2] | QUV-A tests, 500 h, gloss retention (%) [3] | Flow and leveling (cm) [4] | MEK resistance tests, 24 h, gloss loss (%) [5] | Heat resistance, 220° C., 15 min [6]
O=C(CCCCC(=O)N(CCO)CCO)N(CCO)CCO [HAA, N,N,N′,N′-Tetrakis (2-hydroxyethyl)adipamide] | 84.5 | Slight | 72.7% | 3.1 cm | 8.16% | 1.15
O=c1n(CC2CO2)c(=O)n(CC2CO2)c(=O)n1CC1CO1 (stereo not drawn) [TGIC, 1,3,5-Triglycidyl isocyanurate] | 87.6 | Slight | 75.8% | 3.8 cm | 10.25% | 0.59
